In the OligoGym collection:
HELM strings list units from the 5' end as sugar, base in round brackets, then linkage (d deoxyribose, r ribose, m 2'-O-methyl, p phosphodiester). Strings are as the collection lists them; they lack the last nucleoside at the 3' end of the tested compound. [moe] = 2'-O-(2-methoxyethyl) (MOE); [sp] = phosphorothioate linkage; [m5C] = 5-methylcytosine

These substances were tested against APP (assay: mouse, dose not given). Settings: ASO.
In the case of “RNA1{[moe](T)[sp].[moe]([m5C])p.[moe](T)p.[moe]([m5C])p.[moe](A)[sp].d(T)[sp].d(A)[sp].d(G)[sp].d(T)[sp].d([m5C])[sp].d(T)[sp].d(T)[sp].d(A)[sp].d(A)[sp].d(T)[sp].[moe](T)p.[moe]([m5C])p.[moe]([m5C])[sp].[moe]([m5C])}$$$$ (last 3' nucleoside missing)”, the 3 h FOB score is reported as 0 score 0-7. For “RNA1{[moe]([m5C])[sp].[moe](T)p.[moe](A)p.[moe]([m5C])p.[moe]([m5C])[sp].d([m5C])[sp].d([m5C])[sp].d(T)[sp].d([m5C])[sp].d(G)[sp].d(G)[sp].d(A)[sp].d(A)[sp].d([m5C])[sp].d(T)[sp].[moe](T)p.[moe](G)p.[moe](T)[sp].[moe]([m5C])}$$$$ (last 3' nucleoside missing)”, the 3 h FOB score was 0.75 score 0-7. Work on “RNA1{[moe](A)[sp].[moe](G)p.[moe](G)p.[moe](T)p.[moe]([m5C])[sp].d(T)[sp].d([m5C])[sp].d(T)[sp].d(A)[sp].d(T)[sp].d(A)[sp].d(T)[sp].d(T)[sp].d(T)[sp].d(T)[sp].[moe](G)p.[moe](G)p.[moe](T)[sp].[moe]([m5C])}$$$$ (last 3' nucleoside missing)” yielded a 3 h FOB score of 0.33 score 0-7. Substance “RNA1{[moe](G)[sp].[moe]([m5C])p.[moe](A)p.[moe](A)p.[moe](A)[sp].d(G)[sp].d(A)[sp].d(A)[sp].d([m5C])[sp].d(A)[sp].d([m5C])[sp].d([m5C])[sp].d(A)[sp].d(A)[sp].d(T)[sp].[moe](T)p.[moe](T)p.[moe](T)[sp].[moe](T)}$$$$ (last 3' nucleoside missing)” has a 3 h FOB score of 3 score 0-7. In the case of “RNA1{[moe](G)[sp].[moe](A)p.[moe](A)p.[moe](G)p.[moe]([m5C])[sp].d(A)[sp].d(T)[sp].d(A)[sp].d(T)[sp].d(T)[sp].d([m5C])[sp].d([m5C])[sp].d(T)[sp].d([m5C])[sp].d(T)[sp].[moe](A)p.[moe](T)p.[moe]([m5C])[sp].[moe]([m5C])}$$$$ (last 3' nucleoside missing)”, the 3 h FOB score is reported as 0.67 score 0-7. “RNA1{[moe](G)[sp].[moe]([m5C])p.[moe](A)p.[moe](A)p.[moe](G)[sp].d(A)[sp].d([m5C])[sp].d(T)[sp].d(T)[sp].d(T)[sp].d(T)[sp].d([m5C])[sp].d(T)[sp].d(T)[sp].d(T)[sp].[moe](G)p.[moe]([m5C])p.[moe](T)[sp].[moe]([m5C])}$$$$ (last 3' nucleoside missing)” gave a 3 h FOB score of 0 score 0-7. For “RNA1{[moe](T)[sp].[moe](T)p.[moe](G)p.[moe](A)p.[moe](T)p.[moe](A)p.d(T)[sp].d(T)[sp].d(T)[sp].d(G)[sp].d(T)[sp].d([m5C])[sp].d(A)[sp].d(A)[sp].d([m5C])[sp].d([m5C])[sp].[moe]([m5C])p.[moe](A)[sp].[moe](G)}$$$$ (last 3' nucleoside missing)”, the 3 h FOB score was 4.75 score 0-7. “RNA1{[moe](G)[sp].[moe](G)p.[moe]([m5C])p.[moe](A)p.[moe](T)p.[moe]([m5C])p.d(A)[sp].d([m5C])[sp].d(T)[sp].d(T)[sp].d(A)[sp].d([m5C])[sp].d(A)[sp].d(A)[sp].d(A)[sp].d([m5C])[sp].[moe](T)p.[moe]([m5C])[sp].[moe](A)}$$$$ (last 3' nucleoside missing)” showed a 3 h FOB score of 0 score 0-7. For “RNA1{[moe](T)[sp].[moe]([m5C])p.[moe]([m5C])p.[moe](A)p.[moe](T)[sp].d([m5C])[sp].d(T)[sp].d(T)[sp].d([m5C])[sp].d(A)[sp].d([m5C])[sp].d(T)[sp].d(T)[sp].d([m5C])[sp].d(A)[sp].[moe](G)p.[moe](A)p.[moe](G)[sp].[moe](A)}$$$$ (last 3' nucleoside missing)”, the 3 h FOB score was 0.5 score 0-7. Work on “RNA1{[moe](A)[sp].[moe](G)p.[moe](G)p.[moe](A)p.[moe](A)[sp].d([m5C])[sp].d(T)[sp].d([m5C])[sp].d(G)[sp].d(A)[sp].d(A)[sp].d([m5C])[sp].d([m5C])[sp].d(A)[sp].d([m5C])[sp].[moe]([m5C])p.[moe](T)p.[moe]([m5C])[sp].[moe](T)}$$$$ (last 3' nucleoside missing)” yielded a 3 h FOB score of 1 score 0-7. “RNA1{[moe](G)[sp].[moe](A)p.[moe]([m5C])p.[moe](A)p.[moe](T)[sp].d([m5C])[sp].d(A)[sp].d(T)[sp].d(T)[sp].d(T)[sp].d(A)[sp].d(A)[sp].d(T)[sp].d(T)[sp].d(T)[sp].[moe](G)p.[moe](T)p.[moe](G)[sp].[moe]([m5C])}$$$$ (last 3' nucleoside missing)” gave a 3 h FOB score of 0 score 0-7. For “RNA1{[moe]([m5C])[sp].[moe](G)p.[moe](A)p.[moe](G)p.[moe](A)[sp].d(T)[sp].d(A)[sp].d([m5C])[sp].d(T)[sp].d(T)[sp].d(G)[sp].d(T)[sp].d([m5C])[sp].d(A)[sp].d(A)[sp].[moe]([m5C])p.[moe](G)p.[moe](G)[sp].[moe]([m5C])}$$$$ (last 3' nucleoside missing)”, the 3 h FOB score was 2.33 score 0-7. “RNA1{[moe](G)[sp].[moe]([m5C])p.[moe](T)p.[moe](A)p.[moe](T)[sp].d(G)[sp].d(A)[sp].d([m5C])[sp].d(A)[sp].d(A)[sp].d([m5C])[sp].d(A)[sp].d([m5C])[sp].d([m5C])[sp].d(G)[sp].[moe]([m5C])p.[moe]([m5C])p.[moe]([m5C])[sp].[moe](A)}$$$$ (last 3' nucleoside missing)” was tested, and the 3 h FOB score was 1 score 0-7. For “RNA1{[moe](T)[sp].[moe]([m5C])p.[moe](A)p.[moe]([m5C])p.[moe](A)[sp].d(G)[sp].d(T)[sp].d(T)[sp].d(T)[sp].d(A)[sp].d([m5C])[sp].d([m5C])[sp].d([m5C])[sp].d([m5C])[sp].d(A)[sp].[moe](A)p.[moe](G)p.[moe]([m5C])[sp].[moe](T)}$$$$ (last 3' nucleoside missing)”, the 3 h FOB score was 0 score 0-7. “RNA1{[moe](T)[sp].[moe]([m5C])p.[moe](T)p.[moe](T)p.[moe]([m5C])[sp].d(A)[sp].d([m5C])[sp].d(T)[sp].d([m5C])[sp].d([m5C])[sp].d([m5C])[sp].d(A)[sp].d(T)[sp].d([m5C])[sp].d(T)[sp].[moe](G)p.[moe]([m5C])p.[moe](A)[sp].[moe](T)}$$$$ (last 3' nucleoside missing)” showed a 3 h FOB score of 1 score 0-7. With “RNA1{[moe](A)[sp].[moe]([m5C])p.[moe](T)p.[moe]([m5C])p.[moe](G)[sp].d(A)[sp].d(A)[sp].d([m5C])[sp].d([m5C])[sp].d(A)[sp].d([m5C])[sp].d([m5C])[sp].d(T)[sp].d([m5C])[sp].d(T)[sp].[moe](T)p.[moe]([m5C])p.[moe]([m5C])[sp].[moe](A)}$$$$ (last 3' nucleoside missing)” the 3 h FOB score was 0 score 0-7. For “RNA1{[moe](G)[sp].[moe]([m5C])p.[moe](A)p.[moe](T)p.[moe](G)[sp].d([m5C])[sp].d([m5C])[sp].d(T)[sp].d(T)[sp].d([m5C])[sp].d([m5C])[sp].d(T)[sp].d([m5C])[sp].d(A)[sp].d(T)[sp].[moe]([m5C])p.[moe]([m5C])p.[moe]([m5C])[sp].[moe]([m5C])}$$$$ (last 3' nucleoside missing)”, the 3 h FOB score was 0 score 0-7. Work on “RNA1{[moe](A)[sp].[moe]([m5C])p.[moe](T)p.[moe](T)p.[moe](A)[sp].d([m5C])[sp].d(A)[sp].d(A)[sp].d(A)[sp].d([m5C])[sp].d(T)[sp].d([m5C])[sp].d(A)[sp].d([m5C])[sp].d([m5C])[sp].[moe](A)p.[moe](A)p.[moe]([m5C])[sp].[moe](T)}$$$$ (last 3' nucleoside missing)” yielded a 3 h FOB score of 1 score 0-7.
